# Results: ChEMBL document CHEMBL4680318, “(S)-Erypoegin K, an isoflavone isolated from Erythrina poeppigiana, is a novel inhibitor of topoisomerase IIα: Induction of G2 phase arrest in human gastric cancer cells” (Bioorg Med Chem, 2021)
# The source made the active and inactive calls. No cut-off for these calls is given here.
# Experiments:
# [1] = Growth inhibition of human HBC4 cells measured after 48 hrs by sulforhodamine B assay; type: functional
# [2] = Growth inhibition of human BSY1 cells measured after 48 hrs by sulforhodamine B assay; type: functional; details: BSY-1
# [3] = Growth inhibition of human HBC5 cells measured after 48 hrs by sulforhodamine B assay; type: functional
# [4] = system: MCF7; assay: Growth inhibition of human MCF7 cells measured after 48 hrs by sulforhodamine B assay; type: functional
# [5] = system: MDA-MB-231; assay: Growth inhibition of human MDA-MB-231 cells measured after 48 hrs by sulforhodamine B assay; type: functional
# [6] = system: U-251; assay: Growth inhibition of human U-251 cells measured after 48 hrs by sulforhodamine B assay; type: functional
# [7] = system: SF-268; assay: Growth inhibition of human SF-268 cells measured after 48 hrs by sulforhodamine B assay; type: functional
# [8] = system: SF-295; assay: Growth inhibition of human SF-295 cells measured after 48 hrs by sulforhodamine B assay; type: functional
# [9] = system: SF-539; assay: Growth inhibition of human SF-539 cells measured after 48 hrs by sulforhodamine B assay; type: functional
# [10] = system: SNB-75; assay: Growth inhibition of human SNB-75 cells measured after 48 hrs by sulforhodamine B assay; type: functional
# [11] = system: SNB-78; assay: Growth inhibition of human SNB-78 cells measured after 48 hrs by sulforhodamine B assay; type: functional
# [12] = system: HCC 2998; assay: Growth inhibition of human HCC 2998 cells measured after 48 hrs by sulforhodamine B assay; type: functional
# [13] = system: KM12; assay: Growth inhibition of human KM12 cells measured after 48 hrs by sulforhodamine B assay; type: functional
# [14] = system: HT-29; assay: Growth inhibition of human HT-29 cells measured after 48 hrs by sulforhodamine B assay; type: functional
# [15] = system: HCT-15; assay: Growth inhibition of human HCT-15 cells measured after 48 hrs by sulforhodamine B assay; type: functional
# [16] = system: HCT-116; assay: Growth inhibition of human HCT-116 cells measured after 48 hrs by sulforhodamine B assay; type: functional
# [17] = system: NCI-H23; assay: Growth inhibition of human NCI-H23 cells measured after 48 hrs by sulforhodamine B assay; type: functional
# [18] = system: NCI-H226; assay: Growth inhibition of human NCI-H226 cells measured after 48 hrs by sulforhodamine B assay; type: functional
# [19] = system: NCI-H522; assay: Growth inhibition of human NCI-H522 cells measured after 48 hrs by sulforhodamine B assay; type: functional
# [20] = system: NCI-H460; assay: Growth inhibition of human NCI-H460 cells measured after 48 hrs by sulforhodamine B assay; type: functional
# [21] = system: A549; assay: Growth inhibition of human A549 cells measured after 48 hrs by sulforhodamine B assay; type: functional
# [22] = system: DMS-273; assay: Growth inhibition of human DMS-273 cells measured after 48 hrs by sulforhodamine B assay; type: functional
# [23] = system: DMS-114; assay: Growth inhibition of human DMS-114 cells measured after 48 hrs by sulforhodamine B assay; type: functional
# [24] = system: LOX IMVI; assay: Growth inhibition of human LOX IMVI cells measured after 48 hrs by sulforhodamine B assay; type: functional
# [25] = system: OVCAR-3; assay: Growth inhibition of human OVCAR-3 cells measured after 48 hrs by sulforhodamine B assay; type: functional
# [26] = system: OVCAR-4; assay: Growth inhibition of human OVCAR-4 cells measured after 48 hrs by sulforhodamine B assay; type: functional
# [27] = system: OVCAR-5; assay: Growth inhibition of human OVCAR-5 cells measured after 48 hrs by sulforhodamine B assay; type: functional
# [28] = system: OVCAR-8; assay: Growth inhibition of human OVCAR-8 cells measured after 48 hrs by sulforhodamine B assay; type: functional
# [29] = system: SK-OV-3; assay: Growth inhibition of human SK-OV-3 cells measured after 48 hrs by sulforhodamine B assay; type: functional
# [30] = system: RXF 631; assay: Growth inhibition of human RXF 631 cells measured after 48 hrs by sulforhodamine B assay; type: functional
# [31] = system: ACHN; assay: Growth inhibition of human ACHN cells measured after 48 hrs by sulforhodamine B assay; type: functional
# [32] = system: St-4; assay: Growth inhibition of human St-4 cells measured after 48 hrs by sulforhodamine B assay; type: functional
# [33] = system: MKN-1; assay: Growth inhibition of human MKN-1 cells measured after 48 hrs by sulforhodamine B assay; type: functional
# [34] = system: MKN-7; assay: Growth inhibition of human MKN-7 cells measured after 48 hrs by sulforhodamine B assay; type: functional
# [35] = system: MKN-28; assay: Growth inhibition of human MKN-28 cells measured after 48 hrs by sulforhodamine B assay; type: functional
# [36] = system: MKN-45; assay: Growth inhibition of human MKN-45 cells measured after 48 hrs by sulforhodamine B assay; type: functional
# [37] = system: MKN-74; assay: Growth inhibition of human MKN-74 cells measured after 48 hrs by sulforhodamine B assay; type: functional
# [38] = system: DU-145; assay: Growth inhibition of human DU-145 cells measured after 48 hrs by sulforhodamine B assay; type: functional
# [39] = system: PC-3; assay: Growth inhibition of human PC-3 cells measured after 48 hrs by sulforhodamine B assay; type: functional
# [40] = system: GCIY; assay: Antitumor activity against human GCIY cells xenografted in KSN/Slc nude mouse assessed as reduction in tumor size at 40 mg/kg, ip administered twice a week for 4 weeks starting from day 4 post inoculation by vernier caliper method; type: functional, organism-based
# [41] = Toxicity in KSN/Slc nude mouse xenografted with human GCIY cells assessed as effect on body weight at 40 mg/kg, ip administered twice a week for 4 weeks starting from day 4 post inoculation; type: organism-based; details: in vivo, 672 h
# [42] = biological target: DNA topoisomerase 2-alpha (Homo sapiens) (UniProt P11388); assay: Inhibition of human DNA topoisomerase 2alpha assessed as stabilization of DNA cleavage complex at 50 to 200 uM using supercoiled pSL1180 plasmid DNA as substrate measured after 30 mins by ethidium bromide staining-based UV imaging analysis; details: dose 50-200 µM
# Chain of DNA topoisomerase 2-alpha (Homo sapiens) (P11388 whole entry): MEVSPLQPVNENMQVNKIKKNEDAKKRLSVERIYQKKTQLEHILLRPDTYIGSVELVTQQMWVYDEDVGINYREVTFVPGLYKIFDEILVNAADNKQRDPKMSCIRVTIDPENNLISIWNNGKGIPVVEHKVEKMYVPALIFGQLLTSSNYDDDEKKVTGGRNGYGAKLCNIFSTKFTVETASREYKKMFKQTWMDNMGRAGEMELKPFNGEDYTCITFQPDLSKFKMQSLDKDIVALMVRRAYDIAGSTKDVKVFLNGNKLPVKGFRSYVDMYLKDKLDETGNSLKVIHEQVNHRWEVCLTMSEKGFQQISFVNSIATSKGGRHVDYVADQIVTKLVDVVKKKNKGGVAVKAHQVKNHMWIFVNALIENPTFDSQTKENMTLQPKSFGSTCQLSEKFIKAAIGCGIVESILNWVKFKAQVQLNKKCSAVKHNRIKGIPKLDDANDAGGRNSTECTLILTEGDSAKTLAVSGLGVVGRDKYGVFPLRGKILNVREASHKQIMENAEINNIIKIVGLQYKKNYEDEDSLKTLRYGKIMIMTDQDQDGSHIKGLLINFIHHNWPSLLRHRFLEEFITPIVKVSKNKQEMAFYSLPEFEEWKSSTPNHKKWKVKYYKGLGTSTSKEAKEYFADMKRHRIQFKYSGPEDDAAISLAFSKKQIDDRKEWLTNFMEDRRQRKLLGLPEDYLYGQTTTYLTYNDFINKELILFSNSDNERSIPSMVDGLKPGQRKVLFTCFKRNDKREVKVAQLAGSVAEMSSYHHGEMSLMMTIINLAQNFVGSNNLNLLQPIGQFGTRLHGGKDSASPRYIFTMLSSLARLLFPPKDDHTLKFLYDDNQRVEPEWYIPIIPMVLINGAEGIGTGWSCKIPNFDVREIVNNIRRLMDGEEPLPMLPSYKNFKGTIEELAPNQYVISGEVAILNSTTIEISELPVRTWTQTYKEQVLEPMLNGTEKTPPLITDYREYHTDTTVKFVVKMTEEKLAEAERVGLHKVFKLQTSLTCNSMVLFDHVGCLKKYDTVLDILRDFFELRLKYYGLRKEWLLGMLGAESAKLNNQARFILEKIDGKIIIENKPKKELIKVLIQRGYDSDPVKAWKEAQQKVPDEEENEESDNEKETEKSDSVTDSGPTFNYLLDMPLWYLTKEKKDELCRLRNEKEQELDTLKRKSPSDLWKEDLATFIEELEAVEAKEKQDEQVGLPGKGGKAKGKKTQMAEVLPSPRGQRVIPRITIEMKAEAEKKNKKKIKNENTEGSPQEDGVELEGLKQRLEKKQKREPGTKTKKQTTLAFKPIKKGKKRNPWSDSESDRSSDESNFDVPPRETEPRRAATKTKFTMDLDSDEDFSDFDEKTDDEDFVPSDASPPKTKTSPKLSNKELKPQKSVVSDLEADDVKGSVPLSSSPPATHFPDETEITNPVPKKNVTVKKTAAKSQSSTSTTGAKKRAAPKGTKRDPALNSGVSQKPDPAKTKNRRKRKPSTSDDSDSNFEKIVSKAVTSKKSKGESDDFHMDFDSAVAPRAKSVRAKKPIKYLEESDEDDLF
smiles,measurement,setting,value
CC(C)(O)[C@H]1Cc2c(cc(O)c3c(=O)c(-c4ccc(O)cc4)coc23)O1,GI50,[1],> 100 µM
same,GI50,[2],> 100 µM
same,GI50,[3],> 100 µM
same,GI50,[4],89.1 µM
same,GI50,[5],45.7 µM
same,GI50,[6],> 100000 nM
same,GI50,[7],> 100 µM
same,GI50,[8],52.5 µM
same,GI50,[9],53.7 µM
same,GI50,[10],16.6 µM
same,GI50,[11],> 100 µM
same,GI50,[12],> 100 µM
same,GI50,[13],> 100 µM
same,GI50,[14],> 100 µM
same,GI50,[15],> 100 µM
same,GI50,[16],> 100 µM
same,GI50,[17],> 100 µM
same,GI50,[18],> 100 µM
same,GI50,[19],47.9 µM
same,GI50,[20],> 100000 nM
same,GI50,[21],> 100000 nM
same,GI50,[22],> 100000 nM
same,GI50,[23],> 100000 nM
same,GI50,[24],> 100 µM
same,GI50,[25],> 100 µM
same,GI50,[26],> 100 µM
same,GI50,[27],> 100 µM
same,GI50,[28],> 100 µM
same,GI50,[29],26.9 µM
same,GI50,[30],85.1 µM
same,GI50,[31],> 100000 nM
same,GI50,[32],> 100 µM
same,GI50,[33],> 100000 nM
same,GI50,[34],> 100 µM
same,GI50,[35],> 100 µM
same,GI50,[36],> 100 µM
same,GI50,[37],> 100 µM
same,GI50,[38],> 100000 nM
same,GI50,[39],91.2 µM
same,Activity,[40],inactive
same,Activity,[41],Non-Toxic
COc1cc([C@@H]2c3cc4c(cc3[C@@H](O[C@@H]3O[C@@H]5CO[C@@H](C)O[C@H]5[C@H](O)[C@H]3O)[C@H]3COC(=O)[C@H]23)OCO4)cc(OC)c1O [ETOPOSIDE],GI50,[1],16.6 µM
same,GI50,[2],5.37 µM
same,GI50,[3],51.3 µM
same,GI50,[4],2.24 µM
same,GI50,[5],21.4 µM
same,GI50,[6],2340 nM
same,GI50,[7],5.37 µM
same,GI50,[8],2.75 µM
same,GI50,[9],1.86 µM
same,GI50,[10],6.92 µM
same,GI50,[11],44.7 µM
same,GI50,[12],5.62 µM
same,GI50,[13],14.1 µM
same,GI50,[14],22.9 µM
same,GI50,[15],16.2 µM
same,GI50,[16],14.8 µM
same,GI50,[17],4.07 µM
same,GI50,[18],4.9 µM
same,GI50,[19],4.68 µM
same,GI50,[20],1150 nM
same,GI50,[21],2000 nM
same,GI50,[22],1740 nM
same,GI50,[23],2880 nM
same,GI50,[24],3.47 µM
same,GI50,[25],23.4 µM
same,GI50,[26],38.9 µM
same,GI50,[27],19.5 µM
same,GI50,[28],6.76 µM
same,GI50,[29],3.98 µM
same,GI50,[30],12.3 µM
same,GI50,[31],2090 nM
same,GI50,[32],20.9 µM
same,GI50,[33],2140 nM
same,GI50,[34],25.7 µM
same,GI50,[35],21.4 µM
same,GI50,[36],7.94 µM
same,GI50,[37],49 µM
same,GI50,[38],2820 nM
same,GI50,[39],> 100 µM
same,inhibition,[42],Active
